This is an account of results in paper PMC9735621, “Synthesis, Biological Evaluation and Computational Studies of New Hydrazide Derivatives Containing 1,3,4-Oxadiazole as Antitubercular Agents” (International Journal of Molecular Sciences, 2022).

Holding throughout (experiment): microbe, parasite or virus in culture
Common to all, as to format: cell-based

The subject of test [1] is M. tuberculosis INH-R ATCC35822. The conditions noted are these: Mycobacterium tuberculosis.
Test [2] has as its system M. tuberculosis Strepto-R ATCC 35820. The note with it: Mycobacterium tuberculosis, ATCC35820.
Test [3] has as its system M. tuberculosis Pyr-R ATCC 35828. The note with it: Mycobacterium tuberculosis, ATCC35828.
Test [4] deals with M. tuberculosis Rifa-R ATCC 35838. The conditions noted are these: Mycobacterium tuberculosis, ATCC35838.

Structures are written as SMILES. “And” between values parts separate entries of the source, which are not always exact repeats. Identical values can stand only once. Bounds are passed on as bounds.

For the compound `Cc1ccc(C=NNC(=O)c2nnc(-c3ccccc3)o2)cc1` (mixture of isomers) [1j, (E/Z)-N’-(4-methylbenzyliden)-5-phenyl-1,3,4-oxadiazol-2-carbohydrazide], the MIC in test [1] is > 64 µg/mL; in test [2], > 64 µg/mL; in test [3] it was 16 µg/mL and 52.2 µM; in test [4], > 64 µg/mL.
With `O=C(N/N=C\c1ccccc1)c1nnc(-c2ccncc2)o1` [1a, (Z)-N’-benzyliden-5-(pyridin-4-yl)-1,3,4-oxadiazol-2-carbohydrazide], the MIC in test [1], in test [2], in test [3] and in test [4] was > 64 µg/mL throughout.
In the case of `O=C(N/N=C\c1ccc(Cl)cc1)c1nnc(-c2ccncc2)o1` [1b, (Z)-N’-(4-chlorobenzyliden)-5-(pyridin-4-yl)-1,3,4-oxadiazol-2-carbohydrazide], the MIC in test [1], in test [2], in test [3] and in test [4] was > 64 µg/mL in each case.
As for `Cc1ccc(/C=N\NC(=O)c2nnc(-c3ccncc3)o2)cc1` [1c, (Z)-N’-(4-methylbenzyliden)-5-(pyridin-4-yl)-1,3,4-oxadiazol-2-carbohydrazide], the MIC in test [1], in test [2], in test [3] and in test [4] was > 64 µg/mL throughout.
On to `O=C(N/N=C\c1ccc[nH]1)c1nnc(-c2ccncc2)o1` [1d, (Z)-N’-((1H-pyrrol-2-yl)methylen)-5-(pyridin-4-yl)-1,3,4-oxadiazol-2-carbohydrazide], for which the MIC in test [1], in test [2], in test [3] and in test [4] was > 64 µg/mL each time.
On to `O=C(N/N=C\c1ccccn1)c1nnc(-c2ccncc2)o1` [1e, (Z)-N’-(pyridin-2-ylmethylen)-5-(pyridin-4-yl)-1,3,4-oxadiazol-2-carbohydrazide], for which the MIC in test [1] was > 64 µg/mL; in test [2], 32 µg/mL and 108 µM; in test [3], 4 µg/mL and 13.6 µM; in test [4], 32 µg/mL and 108 µM.
In the case of `O=C(N/N=C\c1ccncc1)c1nnc(-c2ccncc2)o1` [1f, (Z)-5-(pyridin-4-yl)-N’-(pyridin-4-ylmethylen)-1,3,4-oxadiazol-2-carbohydrazide], the MIC in test [1], in test [2], in test [3] and in test [4] was > 64 µg/mL each time.
In the case of `O=C(N/N=C\c1ccco1)c1nnc(-c2ccncc2)o1` [1g, (Z)-N’-(furan-2-ylmethylen)-5-(pyridin-4-yl)-1,3,4-oxadiazol-2-carbohydrazide], the MIC in test [1], in test [2], in test [3] and in test [4] was > 64 µg/mL each time.
In the case of `O=C(N/N=C\c1ccccc1)c1nnc(-c2ccccc2)o1` [1h, (Z)-N’-benzyliden-5-phenyl-1,3,4-oxadiazol-2-carbohydrazide], the MIC was > 64 µg/mL in test [1]; > 64 µg/mL in test [2]; 64 µg/mL and 196 µM in test [3]; > 64 µg/mL in test [4].
Consider `O=C(N/N=C\c1ccc(Cl)cc1)c1nnc(-c2ccccc2)o1` [1i, (Z)-N’-(4-chlorobenzyliden)-5-phenyl-1,3,4-oxadiazol-2-carbohydrazide], for which the MIC is > 64 µg/mL in test [1]; > 64 µg/mL in test [2]; 32 µg/mL and 97.8 µM in test [3]; > 64 µg/mL in test [4].
Turning to `O=C(N/N=C\c1ccc[nH]1)c1nnc(-c2ccccc2)o1` [1k, (Z)-N’-((1H-pyrrol-2-yl)methylen)-5-phenyl-1,3,4-oxadiazol-2-carbohydrazide], the MIC in test [1] is > 64 µg/mL; in test [2], > 64 µg/mL; in test [3], 4 µg/mL and 14.1 µM; in test [4] it was > 64 µg/mL.
With `O=C(N/N=C\c1ccccn1)c1nnc(-c2ccccc2)o1` [1l, (Z)-5-phenyl-N’-(pyridin-2-ylmethylen)-1,3,4-oxadiazol-2-carbohydrazide], the MIC in test [1] is > 64 µg/mL; in test [2] it was 64 µg/mL and 109 µM; in test [3] it was 4 µg/mL and 13.6 µM; in test [4] it was 32 µg/mL and 54.4 µM.
As for `O=C(N/N=C\c1ccncc1)c1nnc(-c2ccccc2)o1` [1m, (Z)-5-phenyl-N’-(pyridin-4-ylmethylen)-1,3,4-oxadiazol-2-carbohydrazide], the MIC in test [1] was > 64 µg/mL; in test [2], > 64 µg/mL; in test [3] it was 16 µg/mL and 54.8 µM; in test [4] it was > 64 µg/mL.
On to `O=C(N/N=C\c1ccco1)c1nnc(-c2ccccc2)o1` [1n, (Z)-N’-(furan-2-ylmethylen)-5-phenyl-1,3,4-oxadiazol-2-carbohydrazide], for which the MIC was > 64 µg/mL in test [1]; 32 µg/mL and 103 µM in test [2]; 16 µg/mL and 56.6 µM in test [3]; 32 µg/mL and 103 µM in test [4].
As for `NNC(=O)c1ccncc1` [INH, Isoniazid, reference compound], the MIC in test [1] is > 64 µg/mL; in test [2] it was 0.25 µg/mL and 1.8 µM; in test [3] it was 0.25 µg/mL and 1.8 µM; in test [4], 0.25 µg/mL and 1.8 µM.
As for `CO[C@H]1/C=C/O[C@@]2(C)Oc3c(C)c(O)c4c(O)c(c(/C=N/N5CCN(C)CC5)c(O)c4c3C2=O)NC(=O)/C(C)=C\C=C\[C@H](C)[C@H](O)[C@@H](C)[C@@H](O)[C@@H](C)[C@H](OC(C)=O)[C@@H]1C` [RIF, reference compound], the MIC in test [1] was 0.25 µg/mL and 0.3 µM; in test [2], 0.25 µg/mL and 0.3 µM; in test [3] it was 0.25 µg/mL and 0.3 µM; in test [4], > 64 µg/mL.
